Test results taken from ChEMBL document CHEMBL4304757, “Synthetic heterocyclic candidates as promising α-glucosidase inhibitors: An overview” (Eur J Med Chem, 2019).
pIC50: −log10 of the molar value. Values belong to the molecule of their own block, whether it stands above or below them.

Assays:
[1] = Inhibition of yeast alpha-glucosidase using p-nitrophenyl-alpha-d-glucopyranoside as substrate preincubated for 15 mins followed by substrate addition measured after 20 mins; set-up: species or system Saccharomyces cerevisiae
[2] = test system: MDA-MB-231; assay: Cytotoxicity against human MDA-MB-231 cells assessed as reduction in cell viability at 100 uM relative to control; format: functional, cell-based; details: for pIC50: Homo sapiens, MDA-MB-231
[3] = Inhibition of yeast alpha-glucosidase using p-nitrophenyl-alpha-d-glucopyranoside as substrate preincubated with enzyme followed by substrate addition measured after 30 mins; set-up: species or system Saccharomyces cerevisiae
[4] = molecular target: T1, Alpha glucosidase (Homo sapiens, UniProt O43451+P10253+P14410+Q2M2H8); assay: Inhibition of alpha-glucosidase (unknown origin) using p-nitro phenyl glucopyranoside as substrate preincubated for 10 mins followed by substrate addition measured after 10 mins; format: protein assay
[5] = Inhibition of yeast alpha-glucosidase using p-nitrophenyl-alpha-d-glucopyranoside as substrate preincubated for 15 mins followed by substrate addition measured after 30 mins; set-up: species or system Saccharomyces cerevisiae
[6] = molecular target: T1, Alpha glucosidase; assay: Inhibition of alpha-glucosidase (unknown origin) using p-nitrophenyl-alpha-d-glucopyranoside as substrate preincubated for 10 mins followed by substrate addition measured after 20 mins; format: protein assay
[7] = Inhibition of mouse alpha-glucosidase
[8] = Inhibition of yeast alpha-glucosidase; set-up: species or system Saccharomyces cerevisiae
[9] = molecular target: T1, Alpha glucosidase; assay: Inhibition of alpha-glucosidase (unknown origin) using p-nitrophenyl-alpha-d-glucopyranoside as substrate preincubated for 5 mins followed by substrate addition measured after 30 mins; format: protein assay

Compound: CN1CCN(c2ccc3nc(-c4ccccn4)[nH]c3c2)CC1
pIC50 [1]: 4.68 to 5.66

Compound: CC[C@]1(O)C[C@H]2CN(CCc3c([nH]c4ccccc34)[C@@](C(=O)OC)(c3cc4c(cc3OC)N(C=O)[C@H]3[C@@](O)(C(=O)OC)[C@H](OC(C)=O)[C@]5(CC)C=CCN6CC[C@]43[C@@H]65)C2)C1 [VINCRISTINE]
Activity [2]: 74.5%

pIC50 [3]: 3.54 to 5.68
Compound: CC1=NN(c2ccc(C)cc2)C(=O)/C1=C/c1cn(-c2ccccc2)nc1-c1cc2cc(Br)ccc2oc1=O

pIC50 [4]: 4.46 to 6.26
Compound: O=C1NC(=O)/C(=C\c2ccc(-n3ccc4c(Nc5ccc(F)cc5)ccnc43)cc2)S1

Compound: C[C@H]1O[C@H](O[C@H]2[C@H](O)[C@@H](O)[C@@H](O[C@H]3[C@H](O)[C@@H](O)C(O)O[C@@H]3CO)O[C@@H]2CO)[C@H](O)[C@@H](O)[C@@H]1N[C@H]1C=C(CO)[C@@H](O)[C@H](O)[C@H]1O (stereo partly drawn) [ACARBOSE]
pIC50 [5]: 3.03

pIC50 [3]: 3.54 to 5.68
Compound: CC1=NN(c2ccc([N+](=O)[O-])cc2)C(=O)/C1=C/c1cn(-c2ccccc2)nc1-c1ccc(-c2ccccc2)cc1

pIC50 [1]: 4.70 to 5.47
Compound: Oc1ccc(-c2nc3ccc(N4CCOCC4)cc3[nH]2)cc1O

pIC50 [6]: 3.74 to 4.70
Compound: Nc1c(C(c2ccccc2)c2c(N)c3ccccc3oc2=O)c(=O)oc2ccccc12

Compound: CN1CCN(c2ccc3nc(-c4ccc(F)c(Br)c4)[nH]c3c2)CC1
pIC50 [1]: 4.68 to 5.66

pIC50 [4]: 4.46 to 6.26
Compound: O=C1NC(=O)/C(=C\c2ccc(-n3ncc4ccccc43)cc2)S1

pIC50 [7]: 3.38 to 4.01 | pIC50 [8]: 3.92 to 4.01
Compound: COc1ccc(/C=C/C(=O)C2=C(/C=C/c3ccc(OC)c(O)c3)Oc3[nH]c(=O)[nH]c(=O)c3C2c2cccc([N+](=O)[O-])c2)cc1O (stereo not drawn)

pIC50 [1]: 4.70 to 5.47
Compound: Fc1ccc(-c2nc3ccc(N4CCOCC4)cc3[nH]2)cc1Br

pIC50 [6]: 3.74 to 4.70
Compound: Nc1c(C(c2ccc([N+](=O)[O-])cc2)c2c(N)c3ccccc3oc2=O)c(=O)oc2ccccc12

pIC50 [3]: 3.54 to 5.68
Compound: CC1=NN(c2ccc(C)cc2)C(=O)/C1=C/c1cn(-c2ccccc2)nc1-c1ccc(-c2ccccc2)cc1

pIC50 [5]: 4.14
Compound: c1ccc2c(c1)c1ccccc1n2Cc1cn(Cc2ccc(-c3ccc(Cn4cc(Cn5c6ccccc6c6ccccc65)nn4)cc3)cc2)nn1

pIC50 [3]: 3.54 to 5.68
Compound: O=C1/C(=C/c2cn(-c3ccccc3)nc2-c2cc3cc(Br)ccc3oc2=O)C(c2ccccc2)=NN1c1ccccc1

pIC50 [1]: 4.70 to 5.47
Compound: c1ccc(-c2nc3ccc(N4CCOCC4)cc3[nH]2)nc1

pIC50 [9]: 5.80 to 7.05
Compound: Cc1ccc(N2C(=O)/C(=C/c3ccc(F)cc3)S/C2=N\NC(=O)c2cc3ccccc3oc2=O)cc1
Activity [2]: >=76%

pIC50 [1]: 5.00
Compound: NNC(=O)Cn1c(Cc2ccc(Cl)cc2Cl)nc2ccc([N+](=O)[O-])cc21

pIC50 [9]: 5.80 to 7.05
Compound: Cc1ccc(N2C(=O)/C(=C/c3ccc(F)cc3)S/C2=N\NC(=O)c2cc3ccccc3oc2=O)cc1C
pIC50 [2]: 5.80 to 7.05

pIC50 [9]: 5.80 to 7.05
Compound: Cc1cccc(N2C(=O)/C(=C/c3ccc(F)cc3)S/C2=N\NC(=O)c2cc3ccccc3oc2=O)c1
Activity [2]: >=76%

pIC50 [9]: 5.80 to 7.05
Compound: O=C(N/N=C1\S/C(=C\c2ccc(F)cc2)C(=O)N1c1ccc(Cl)cc1)c1cc2ccccc2oc1=O
Activity [2]: >=76%

pIC50 [5]: 3.74 to 4.22
Compound: Cc1[nH]nc2c1C(c1ccccc1OCc1ccccc1)C(C#N)=C(N)O2 (stereo not drawn)

pIC50 [9]: 5.80 to 7.05
Compound: Cc1cccc(C)c1N1C(=O)/C(=C/c2ccc(F)cc2)S/C1=N\NC(=O)c1cc2ccccc2oc1=O
Activity [2]: >=76%

pIC50 [6]: 3.74 to 4.70
Compound: Nc1c(C(c2ccccc2F)c2c(N)c3ccccc3oc2=O)c(=O)oc2ccccc12

IC50 [9]: 90 nM
Compound: COc1ccccc1N1C(=O)/C(=C/c2ccc(F)cc2)S/C1=N\NC(=O)c1cc2ccccc2oc1=O
Activity [2]: 72.8%

pIC50 [3]: 3.54 to 5.68
Compound: CC1=NN(c2ccc([N+](=O)[O-])cc2)C(=O)/C1=C/c1cn(-c2ccccc2)nc1-c1cc2ccccc2oc1=O

pIC50 [1]: 4.70 to 5.47
Compound: COc1cc(-c2nc3ccc(N4CCOCC4)cc3[nH]2)ccc1O

pIC50 [3]: 3.54 to 5.68
Compound: CC1=NN(c2ccccc2)C(=O)/C1=C/c1cn(-c2ccccc2)nc1-c1cc2cc(Br)ccc2oc1=O

IC50 [9]: > 100000 nM
Compound: O=C(N/N=C1\S/C(=C\c2ccc(F)cc2)C(=O)N1c1cccc(Cl)c1)c1cc2ccccc2oc1=O
Activity [2]: >=76%

pIC50 [5]: 4.92
Compound: O=C(CC(c1ccc(Br)cc1)C(C(=O)Nc1ccccn1)C(=O)Nc1ccccn1)c1ccccc1 (stereo not drawn)

pIC50 [6]: 3.74 to 4.70
Compound: COc1cc(C(c2c(N)c3ccccc3oc2=O)c2c(N)c3ccccc3oc2=O)cc(Br)c1O

pIC50 [5]: 6.10
Compound: c1cncc(Cn2cc(Cn3c4ccccc4c4ccccc43)nn2)c1

pIC50 [4]: 4.46 to 6.26
Compound: O=C1NC(=O)/C(=C\c2ccc(-n3ccc4c(Nc5ccccc5OC(F)(F)F)ccnc43)cc2)S1

pIC50 [4]: 4.46 to 6.26
Compound: O=C1NC(=O)/C(=C\c2ccc(-n3cnc4ccccc43)cc2)S1

pIC50 [9]: 5.80 to 7.05
Compound: O=C(N/N=C1\S/C(=C\c2ccc(F)cc2)C(=O)N1c1ccccc1Cl)c1cc2ccccc2oc1=O
pIC50 [2]: 5.80 to 7.05

pIC50 [4]: 4.46 to 6.26
Compound: O=C(O)CN1C(=O)S/C(=C/c2ccc(-n3ccc4c(Br)ccnc43)cc2)C1=O

pIC50 [4]: 4.46 to 6.26
Compound: O=C1NC(=O)/C(=C\c2ccc(-n3ccc4c(Br)ccnc43)cc2)S1

pIC50 [5]: 4.55
Compound: Cc1ccc(C(CC(=O)c2ccccc2)C(C(=O)Nc2ccccn2)C(=O)Nc2ccccn2)cc1 (stereo not drawn)
